Assay results from the NIST ThermoML archive (doi:10.1021/je030133a).
“And” between values parts separate entries of the source, which are not always exact repeats. Equal values may be shown once. ± gives the expanded uncertainty stated by the source.

Key:
[1] = xn = mol fraction of the nth substance listed; details: 101.3 kPa, Liquid
[2] = 101.3 kPa, Liquid

| Structure (SMILES) | mass density ([2]; 303.15 K) [kg/m3] | viscosity ([2]; 303.15 K) [mPa·s] | mass density ([2]; 308.15 K) [kg/m3] | viscosity ([2]; 308.15 K) | mass density ([2]; 313.15 K) | viscosity ([2]; 313.15 K) | mass density ([1]; 303.15 K, x2 = 0) [kg/m3] | viscosity ([1]; 303.15 K, x2 = 0) [mPa·s] | mass density ([1]; 308.15 K, x2 = 0) [kg/m3] | viscosity ([1]; 308.15 K, x2 = 0) [mPa·s] | mass density ([1]; 313.15 K, x2 = 0) [kg/m3] | viscosity ([1]; 313.15 K, x2 = 0) [mPa·s] | further results |
| --- | --- | --- | --- | --- | --- | --- | --- | --- | --- | --- | --- | --- | --- |
| C1COCCO1 [1,4-dioxane] + ClC(Cl)(Cl)Cl |  |  |  |  |  |  |  |  |  |  |  |  | mass density ([1]; 303.15 K, x1 = 1): 1022.3 ± 2.7 kg/m3; viscosity ([1]; 303.15 K, x1 = 1): 1.099 ± 0.027 mPa·s; mass density ([1]; 308.15 K, x1 = 1): 1016.7 ± 2.8 kg/m3; viscosity ([1]; 308.15 K, x1 = 1): 1.03 ± 0.025 mPa·s; mass density ([1]; 313.15 K, x1 = 1): 1012 ± 2.9 kg/m3; viscosity ([1]; 313.15 K, x1 = 1): 0.9575 ± 0.024 mPa·s |
| CCCCO [butan-1-ol] | 805.7 ± 2.1 | 2.282 ± 0.1 | 797.2 ± 2.2 | 1.907 ± 0.088 mPa·s and 1.895 ± 0.088 mPa·s | 795.5 ± 2.3 kg/m3 | 1.681 ± 0.079 mPa·s |  |  |  |  |  |  |  |
| CCCCO [butan-1-ol] + C1COCCO1 |  |  |  |  |  |  | 805.7 ± 2.1 | 2.282 ± 0.1 | 797.2 ± 2.2 | 1.895 ± 0.088 | 795.5 ± 2.3 | 1.681 ± 0.079 |  |
| CCCCO [butan-1-ol] + ClC(Cl)(Cl)Cl |  |  |  |  |  |  | 805.7 ± 2.1 | 2.282 ± 0.1 | 797.2 ± 2.2 | 1.907 ± 0.088 | 795.5 ± 2.3 | 1.681 ± 0.079 |  |
| ClC(Cl)(Cl)Cl [tetrachloromethane] | 1580.6 ± 6.9 | 0.8689 ± 0.022 | 1575.7 ± 6.9 | 0.8307 ± 0.021 mPa·s | 1570.9 ± 6.9 kg/m3 and 1571.3 ± 6.9 kg/m3 | 0.807 ± 0.021 mPa·s and 0.8072 ± 0.041 mPa·s |  |  |  |  |  |  |  |
